Results on one compound are retold here after patent US8895579B2, “Heterotricyclic AMPA receptor antagonists for treatment of epilepsy, pain, and other neurological disorders and diseases” (Northwestern University, priority 2010, dated 2014).

Assay [1] addresses T1, recombinant homomeric GluA4 AMPA receptor (Rattus norvegicus, UniProt P19493).
T1 construct: expressed in transfected cells; host or cells: HEK293-T/17 (CRL-11268)
In words: Whole-cell patch clamp of recombinant GluA4 receptors in HEK293-T/17 cells. In kind it is cell-based. The settings on record: for inhibition at 30 µM: HEK293T/17, 30 μM. As to the method: (§1) Cell Culture and Transfection. Human embryonic kidney cells expressing T-antigen, clone 17 (HEK293-T/17) (CRL-11268) were cultured at 37° C. with 5% CO2 in DMEM, including 100 μg/mL penicillin, 100 μg/mL streptomycin, and 10% heat-inactivated fetal bovine serum. Cells were split twice per week. For transfection, HEK293-T/17 cells were plated at 3×10^4 cells/cm^2 for pharmacology experiments and 5×10^3 cells/cm^2 for physiology experiments in fresh medium 24 h prior to transfection. Cells were transfected with AMPA or KA receptor plasmid cDNAs using Mirus Trans-IT transfection reagent (Minus Bio Corporation, Madison, Wis.) at a ratio of 1 μg cDNA: 3 μL Trans-1T reagent and maintained in transfection medium overnight followed by a media change the next day. Transfected cells were maintained in this medium until the experiment was conducted (48-72 h total post transfection).
Electrophysiology. For analysis of recombinant receptors, HEK293-T/17 cells were co-transfected with 0.2 μg of iGluR cDNA and 0.05 μg of eGFP. For heterologous GluA1/GluA2 receptors, the GluA1:GluA2 cDNA ratio was 1:6. Two to three days post-transfection, eGFP-expressing cells were lifted from the cover slip and voltage clamped in whole cell mode. The internal solution contained (in mM) 30 CsF, 110 CsCl, 10 HEPES, 4 NaCl, 5 EGTA and 0.5 CaCl2 (pH 7.3), while the extracellular solution contained (in mM) 140 NaCl, 10 glucose, 10 Cs-HEPES, 3 KCl, 2 CaCl2 and 1 MgCl2 (pH 7.3). Borosilicate patch electrodes were pulled and fire polished to 2-3 MO resistance. Lifted cells were maintained in a laminar stream of extracellular solution from a triple-barreled flow pipe, which was rapidly translated using a piezoceramic bimorph for fast application of glutamate or kainate alone or in combination with various antagonists (the 10-90% rise time of glutamate-evoked currents was ˜1 ms). IKM compounds were applied for three minutes with analysis performed on the final one minute of drug application.
Statistical analysis. At least three separate experiments were performed for each assay. For data involving three or more groups, a one-way analysis of variance (ANOVA) was performed with a Tukey-Kramer post hoc test for comparison amongst the groups. For data involving two groups, an unpaired student's t-test was performed; if the standard deviations between the two groups were statistically significant, a Welsh correction was added. If the data involving three or more groups or data involving two groups where multiple treatments were performed on the same sample, a repeated measures ANOVA and paired t-test were used, respectively, for analysis of significance. Dose-inhibition response curves were fitted, with the maximum value constrained to 100 and the minimum value constrained to values greater than or equal to zero, using the following equation in order to calculate the IC50 values: Response=minimum+(maximum−minimum)/(1+(IC50^hill slope/dose^hillslope)) All calculations for statistical analysis were carried out with Graphpad Prism4 software (La Jolla, Calif.). Data are presented as mean±S.E.M. with statistical significance set at p<0.05.

For assay [2], the system named is NMDA receptor-mediated EPSCs, CA1 pyramidal cells. As to the kind of experiment: NMDA receptor EPSCs at Schaffer collateral-CA1 synapses, acute hippocampal slices. It counts as cell-based, mouse. The settings on record: 20 μM; 5 min treatment. As for the experimental part:
For recordings from acute hippocampal slices, brains from P15-21 C57Bl/6 mice were sliced transversely (350 μm thickness) in a sucrose slicing solution containing (in mM) 85 NACl, 2.5 KCl, 1.25 NaH2PO4, 25 NaHCO3, 25 glucose, 75 sucrose, 0.5 CaCl2, 4 MgCl2, 0.5 Na ascorbate, 10 μM DL-APV and 100 μM kynurenic acid (pH 7.3). After slicing, the solution was exchanged with an incubation solution containing (in mM) 125 NaCl, 2.4 KCl, 1.2 NaH2PO4, 25 NaHCO3, 25 glucose: 1 CaCl2, 2 MgCl2, 0.5 Na ascorbate, 10 μM DL-APV and 100 μM kynurenic acid (pH 7.3) that was bubbled continuously with CO2-balanced O2 (carbogen). […] Recordings in voltage clamp mode used the CsF/CsCl internal solution and carbogenated external recording solution containing (in mM) 120 NaCl, 2.4 KCl, 2 MgCl2, 1 CaCl2, 25 NaHCO3, 1.2 NaH2PO4, 25 glucose, 10 μM bicuculline methiodide, 50 μM PTX and 50 μM D-APV (pH 7.3). […] NMDA EPSCs were validated by addition of D-APV (50 μM) at the end of each recording. Hippocampal CA1 or CA3 pyramidal cells were voltage clamped at −70 mV and stimulated with a monopolar electrode either the stratum radiatum or stratum lucidum, respectively. […] EPSC charge transfer, AP frequency, paired-pulse ratio and EPSC peak amplitude were analyzed with Mini-Analysis v6.03 (Synaptosoft, Decatur, Ga.) and Clampfit v10.0 (MDS, Sunnyvale, Calif.) software.

Assay [3] deals with T2, homomeric GluK1-2b kainate receptor (Rattus norvegicus, UniProt P22756).
T2 construct: myc; expressed in transfected cells; host or cells: HEK293-T/17 (CRL-11268)
As to the kind of experiment: Whole-cell patch clamp of recombinant GluK1-2b receptors in HEK293-T/17 cells. It counts as cell-based. Particulars: 30 μM; 10 mM glutamate. As to the method:
as §1
Electrophysiology. For analysis of recombinant receptors, HEK293-T/17 cells were co-transfected with 0.2 μg of iGluR cDNA and 0.05 μg of eGFP. For heterologous GluA1/GluA2 receptors, the GluA1:GluA2 cDNA ratio was 1:6. Two to three days post-transfection, eGFP-expressing cells were lifted from the cover slip and voltage clamped in whole cell mode. […]

Where two headings read alike, the source gives them in different places.

T1 sequence (P19493 21-902 isoform P19493-2 limits assumed): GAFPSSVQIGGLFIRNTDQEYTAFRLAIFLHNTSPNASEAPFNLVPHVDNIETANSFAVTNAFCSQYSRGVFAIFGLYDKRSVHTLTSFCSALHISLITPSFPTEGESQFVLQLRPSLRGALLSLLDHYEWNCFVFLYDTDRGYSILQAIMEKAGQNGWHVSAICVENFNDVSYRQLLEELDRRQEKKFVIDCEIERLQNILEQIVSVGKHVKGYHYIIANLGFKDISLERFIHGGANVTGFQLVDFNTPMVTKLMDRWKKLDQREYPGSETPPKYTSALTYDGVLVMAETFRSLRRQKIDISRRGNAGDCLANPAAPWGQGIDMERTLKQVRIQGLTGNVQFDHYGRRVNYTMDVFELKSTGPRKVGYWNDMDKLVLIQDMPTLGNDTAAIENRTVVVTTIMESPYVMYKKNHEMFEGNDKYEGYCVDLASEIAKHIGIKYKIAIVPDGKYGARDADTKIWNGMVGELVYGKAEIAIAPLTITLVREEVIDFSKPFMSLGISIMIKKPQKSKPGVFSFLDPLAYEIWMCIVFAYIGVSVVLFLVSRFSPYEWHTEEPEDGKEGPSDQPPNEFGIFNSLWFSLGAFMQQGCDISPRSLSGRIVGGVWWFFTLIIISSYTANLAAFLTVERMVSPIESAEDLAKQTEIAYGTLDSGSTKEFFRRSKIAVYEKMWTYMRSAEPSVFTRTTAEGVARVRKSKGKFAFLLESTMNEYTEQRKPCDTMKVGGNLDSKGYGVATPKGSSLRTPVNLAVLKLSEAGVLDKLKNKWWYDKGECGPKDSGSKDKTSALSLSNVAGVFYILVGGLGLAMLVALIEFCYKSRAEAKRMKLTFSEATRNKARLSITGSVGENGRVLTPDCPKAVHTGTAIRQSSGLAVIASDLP
T2 sequence (P22756 31-905 isoform P22756-2 limits assumed): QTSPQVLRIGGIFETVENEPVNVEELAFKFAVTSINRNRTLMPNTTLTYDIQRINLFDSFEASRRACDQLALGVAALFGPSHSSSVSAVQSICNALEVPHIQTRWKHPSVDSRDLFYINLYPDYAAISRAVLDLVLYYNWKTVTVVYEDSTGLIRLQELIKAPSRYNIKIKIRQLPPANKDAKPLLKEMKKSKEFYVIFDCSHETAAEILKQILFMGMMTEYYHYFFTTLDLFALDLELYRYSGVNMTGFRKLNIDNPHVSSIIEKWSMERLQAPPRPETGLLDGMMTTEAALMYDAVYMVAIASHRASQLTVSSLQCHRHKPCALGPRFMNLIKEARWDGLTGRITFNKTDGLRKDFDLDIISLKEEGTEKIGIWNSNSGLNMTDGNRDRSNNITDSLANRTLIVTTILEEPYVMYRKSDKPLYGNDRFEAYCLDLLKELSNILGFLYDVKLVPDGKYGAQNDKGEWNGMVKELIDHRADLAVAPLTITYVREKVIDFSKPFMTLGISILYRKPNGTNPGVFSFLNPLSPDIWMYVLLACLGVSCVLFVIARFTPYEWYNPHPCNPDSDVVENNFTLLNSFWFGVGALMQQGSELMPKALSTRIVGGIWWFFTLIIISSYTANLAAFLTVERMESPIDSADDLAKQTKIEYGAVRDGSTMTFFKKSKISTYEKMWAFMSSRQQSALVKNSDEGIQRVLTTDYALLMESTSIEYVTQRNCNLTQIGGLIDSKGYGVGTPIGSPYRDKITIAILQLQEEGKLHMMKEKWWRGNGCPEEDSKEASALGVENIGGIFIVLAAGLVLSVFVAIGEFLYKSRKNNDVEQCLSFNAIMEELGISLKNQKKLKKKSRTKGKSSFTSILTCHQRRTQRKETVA

On to `O=C(O)C[C@@]12O[C@H]3C=CCN[C@H]3C1CN[C@H]2C(=O)O` (stereo partly shown) [IKM-159], for which the inhibition at 30 µM in assay [1] (50 μM KA, read-out: percent inhibition of kainate-evoked steady state GluA4 currents) was 37 ± 4%; in assay [1] (100 μM glutamate, 100 μM cyclothiazide, read-out: percent inhibition of steady-state GluA4 currents), 30 ± 5%; in assay [1] (500 μM KA, read-out: percent inhibition of kainate-evoked steady state GluA4 currents), 21 ± 2%; in assay [1] (500 μM glutamate, read-out: percent inhibition of GluA4 non-equilibrium peak currents) it was 44 ± 8%; in assay [1] (10 mM glutamate, 100 μM cyclothiazide, read-out: percent inhibition of steady-state GluA4 currents) it was 7 ± 2%; in assay [1] (10 mM glutamate, peak current, read-out: reduction from control GluA4 peak glutamate current amplitude (percent inhibition)), 40 ± 4%. In addition, in assay [1] (HEK293T/17, 30 μM, 10 mM glutamate 100 ms, pre-applied at least one minute, read-out: GluA4 peak current as percent of control amplitude), the remaining activity at 30 µM stood at 60 ± 4%. In addition, in assay [1] (currents evoked by 10 mM glutamate), the IC50 came out at 60 ± 8 µM. Moreover, the “NMDA receptor-mediated EPSC amplitude, % of control amplitudes” value in assay [2] was 99±3%. The “GluK1-2b peak amplitude as percent of basal peak glutamate current” value in assay [3] amounted to 90±10%.
